Measurements: patent publication US20080249178A1, “MAGNESIUM COMPOSITIONS AND USES THEREOF FOR INCREASING LIFESPAN” (priority 2007, published 2008)

What was measured:
[1] = diabetic patients, nearly 1 g of magnesium daily for 1 month; cited from earlier work
[2] = tested on: young (9-month old) and aged (25-month old) rats; settings: food containing 2% magnesium oxide for 8 days, cited from earlier work
[3] = tested on: mice that were genetically altered to present symptoms of Alzheimer's disease (AD); assay: Modified Morris water maze in AD mice; assay type: in vivo; settings: AD mice aged 13 months
Procedure: Another group, the control group, of 10 mice that were genetically altered to present symptoms of AD were fed a Control Diet, a diet of normal solid food and water, for 30 days.
The pool used was a pool of water in a circular metal tank (150 cm in diameter and 50 cm in depth) having a water height of 30 cm and a water temperature that was maintained at ˜22° C. The pool was placed in a moderately lit area and surrounded by a black curtain. An acrylic platform (15 cm in diameter) was placed 2 cm below the surface of the water in the middle of one quadrant of the pool, equidistant from the center and the edge of the pool. Outside the pool, a cue was placed so as to be visible to a mouse in the maze, allowing a mouse to use it as a landmark for spatial orientation. The cue remained unchanged throughout the test period.
On the first day of the training and testing period, the water in the pool was transparent, such that the platform was visible. Each mouse was trained to swim towards the platform and to stand on the platform so as not to be submerged in the pool. […] The amount of time the mouse took to find the platform, referred to as “escape latency,” was recorded for each trial.
On the second day of the training and testing period, a small quantity of milk was added to the water in the pool, such that the pool was opaque and the platform was no longer visible. […]

[4] = tested on: Sprague Dawley (SD) rats; settings: aging rats, 6 mg/kg MgCl2
Procedure: Twenty 2-month old, male Sprague Dawley (SD) rats were housed in a temperature-controlled room (22° C. to 25° C.) with a dark period from 08:00 pm to 08:00 am daily. […] Over 7 days before the training and trial period began, each rat was handled and habituated to the maze and to Kellogg's Froot Loop cereal.
Each rat underwent a test of one trial, followed by an interval of 10-minutes, followed by another trial, and so on, for a total of 6 trials in one day. In each trial, each rat went through a sample run in the maze, followed by an interval of 15 seconds, followed by a choice run in the maze. In the sample run, the subject rat was forced to go to the left or to the right by the presence of a block, according to a pseudorandom sequence (with an equal number of left turns and right turns, and no more than two consecutive turns in the same direction). As a reward, Froot Loop cereal was available in the food well at the end of the run, regardless of the direction that was taken by virtue of the block. In the choice run, the block that had been present in the preceding sample run was removed, and the rat was allowed to choose to go to the left or to the right. As a reward, Froot Loop cereal was available in the food well at the end of the run, only when the rat had made a “correct choice” by choosing the direction opposite that taken in the preceding sample run. […]
On the first day (designated day 0) of the feeding of the two groups, as just described, each rat underwent a preliminary test of one trial, followed by an interval of 10 minutes, followed by another trial, and so on, for a total of 4 trials in one day. […] In this preliminary test, the choice accuracy level, or ratio of correct choices made, co, to the number of number of trials in the test, no, was determined for each rat. […]
Three groups of animals (young, aging, and magnesium-treated aging rats) were used. […] Spatial working memory was assessed using a T-maze non-matching-to-place task. […] Spatial working memory was first assessed on an elevated T-maze. […]

[5] = tested on: Sprague-Dawley rats; assay: Novel object recognition test in rats; assay type: in vivo
Procedure: In this example, the effect of magnesium supplementation on recognition memory was tested. Three groups of rats were used in these experiments: 1) young rats (three months old); aging rats (12-14 months old), and; 3) magnesium-treated aging rats (12-14 months old, diet supplemented with 6 mg/kg MgCl2 from 8 months of age). We used experimentally naive, female, Sprague-Dawley young […], aging (12-14 month old) and […] rats (Charles River) at the beginning of the behavior experiments. They were housed two per cage with continuous access to food and water under a 12:12 light-dark cycle, with light onset at 8:00 a.m. […] All experiments involving animals were approved by the Massachusetts Institute of Technology's and Tsinghua University Committees on Animal Care.
The three groups of rats were tested for recognition memory using an object recognition test with a single exposure to the object during training. The task is based on the natural tendency of rodents to explore new objects and tests the animals' memory capacity for distinguishing novel versus familiar objects.
Briefly, the rats were first individually habituated to the personnel and then to open-field arena during 2 weeks. […] The retention intervals were 10 min and 24 hours. Objects were cleaned thoroughly between trials with 20% ethanol solution to ensure the absence of olfactory cues. The particular objects for a given trial were randomly determined, but each object was used for only one trial per rat. Memory of the familiar object is associated with increased exploration of the new object and an exploration index (% correct) is calculated as new object inspection time/30.
In this example, the effect of magnesium supplementation on memory consolidation was studied. […]
Briefly, the rats were first individually habituated to the personnel and then to open-field arena during 2 weeks. […] The particular objects for a given trial were randomly determined, but each object was used for only one trial per rat. […]

[6] = Magnesium absorption rate in rats (metabolic cages, urine and feces magnesium by ICP-AES); settings: higher dosage compositions; magnesium chloride in water, magnesium gluconate in skim milk or water comprising 5 weight percent lactose
Procedure: Fifty 3-month old, male Sprague Dawley (SD) rats were divided into five groups of ten rats. Rats of this age and older are considered adult. Each of the rats was placed in a separate metabolic cage equipped with urine- and feces-collecting wells. All of the rats were maintained in a temperature-controlled room (22° C. to 25° C.) with a dark period from 08:00 pm to 08:00 am daily. From day 1 through day 3, each rat was fed daily 15 g of magnesium-free food and de-ionized water. […] The medium was skim milk for Composition 1 and Group 1, milk prepared from powdered milk, by diluting the powdered milk with water to obtain a composition like that of skim milk, for Composition 2 and Group 2, 1% milk cream in water for Composition 3 and Group 3, water comprising 5 weight percent lactose for Composition 4 and Group 4, and water for the Control Composition and Control Group. […]
From day 4 through day 10, urine from each rat was collected daily. The collected urine from each rat was then pooled together and the total volume of the pooled urine from each rat was recorded. The pooled urine from each rat, in an amount of […], was analyzed for magnesium content using an inductively coupled plasma-atomic emission spectrometer (ICP-AES). […] The pooled feces from each rat, in an amount of 0.5 g, were analyzed for magnesium content using an ICP-AES. […]

Compound: [O]=[Mg] [magnesium oxide]
- increase of serum magnesium level [1]: about 10%
- metabolic control [1]: only minor improvement in metabolic control
- side-effect [2]: diarrhea and weight loss
- cognitive function ([2]; gain transient): some sign of improvement of cognitive function

Compound: CC12CC3CC(C)(C1)CC(N)(C3)C2 [memantine]
- reduction of the effects of AD on learning capacity, compared with aricept [3]: better at reducing the effects of AD on learning capacity than aricept

Compound: [Cl-].[Cl-].[Mg+2] [MgCl2, magnesium chloride]
- spatial working memory performance with increased delay ([4]; 2 and 5 min delays (p<0.05)): significantly enhanced the performance of the aging rats
- percentage of correct choices during training ([4]; 15 sec delay (p<0.05)): performed significantly better from their first trials
- asymptotic choice accuracy level ([4]; after 8 days of training): 94%
- novel object exploration preference ([5]; aging rats (12-14 months old), 6 mg/kg MgCl2 from 8 months of age, single exposure, 10 minute retention interval (P<0.0001)): preferentially explored the novel object to the same extent as young rats
- ability to distinguish novel versus familiar objects ([5]; aging rats, 6 mg/kg MgCl2, single exposure, after 24 hours): lose there ability to distinguish novel versus familiar objects
- preference for the novel object ([5]; aging rats, 6 mg/kg MgCl2, two training sessions, 24-hour retention interval): retained a high level of preference
- magnesium absorption rate at relatively high magnesium dosage [6]: less desirable
